Measured values: US20240174695A1, “Spirocycle Containing Bicyclic Heteroaryl Compounds” (Protego Biopharma, Inc., priority 2022, published 2024)

system: Recombinant amyloidogenic full length light chain protein WIL-FL T46L; experiment: Differential Scanning Fluorimetry Assay (thermal shift assay); type: binding; settings: Thermal Shift Protein Stability Kit (Biotium), 96-well plates; protein and compounds incubated at RT for 30 min before adding the dye; note: test concentration or dose not given here
Method: Differential Scanning Fluorimetry Assay
The stabilization effects the compounds have on the immunoglobulin light chain protein were quantitively measured using a thermal shift assay. Recombinant amyloidogenic full length light chain protein WIL-FL T46L was produced in E. coli, purified, and used in the assay. The Thermal Shift Protein Stability Kit from Biotium was used and the assay was done in 96-well plates following the manufacturer's instructions. The protein and compounds were incubated at RT for 30 min before adding the dye and subjected to the thermal shift assay. The thermal stability (Tm) of each sample was then determined using standard curve fitting methods and compared to vehicle. Data are expressed as temperature shift: [Tm]compound−[Tm]vehicle.
Results • 0-0.5° C.=* • >0.5-1° C.=** • >1-1.5° C.=*** • >1.5-2.5° C.=**** • >2.5° C.=*****

| SMILES | DSF temperature shift: [Tm]compound−[Tm]vehicle |
| --- | --- |
| Cc1cc(OCC2(c3ccccc3)CC2)cn2nc(C(O)CN3CC4(CCN(c5ccc(N)c(F)n5)CC4)NC3=O)nc12 (stereo not drawn) [Compound 52] | ***** (>2.5° C.=*****) |
| Cc1cc(OCC2(c3ccccc3)CC2)cn2nc(C(O)CN3CC4(CCN(C(=O)Cn5cnnn5)CC4)NC3=O)nc12 (stereo not drawn) [Compound 33] | **** (>1.5-2.5° C.=****) |
| Cc1cc(OC[C@H](C)c2ccccc2)cn2nc(C(O)CN3CC4(CCN(c5cnccn5)CC4)NC3=O)nc12 (stereo partly drawn) [Compound 78] | ***** (>2.5° C.=*****) |
| CNC(=O)c1cc(N2CCC3(CC2)CC(=O)N(CC(C)(O)c2nc4c(C)cc(OC[C@H](C)c5ccccc5)cn4n2)C3)ccn1 (stereo partly drawn) [Compound 131] | *** (>1-1.5° C.=***) |
| Cc1cc(OC[C@H](C)c2ccccc2)cn2nc(CCN3CC4(CCN(c5nccn6cncc56)CC4)NC3=O)nc12 [Compound 63] | **** (>1.5-2.5° C.=****) |
| Cc1cc(OC[C@H](C)c2ccccc2)cn2nc(CCN3CC4(CCN(c5ccnc(C(F)(F)F)c5)CC4)NC3=O)nc12 [Compound 96] | *** (>1-1.5° C.=***) |
| Cc1ccc(N2CCC3(CC2)CN(CCc2nc4c(C)cc(OC[C@H](C)c5ccccc5)cn4n2)C(=O)N3)nn1 [Compound 121] | **** (>1.5-2.5° C.=****) |
| Cc1cc(OCC2(c3ccccc3)CC2)cn2nc(C(O)CN3CC4(CCN(c5ncccn5)CC4)NC3=O)nc12 (stereo not drawn) [Compound 56] | ***** (>2.5° C.=*****) |
| Cc1cc(N2CC[C@@](C)(c3ccccc3)C2)cn2nc(C(C)(O)CN3CC4(CCN(c5ccnc(O)c5)CC4)NC3=O)nc12 (stereo partly drawn) [Compound 20] | ***** (>2.5° C.=*****) |
| Cc1cc(OCC2(c3ccccc3)CC2)cn2nc(C(O)CN3CC4(CCN(c5ccnc(O)c5)CC4)NC3=O)nc12 (stereo not drawn) [Compound 45] | ***** (>2.5° C.=*****) |
| Cc1cc(OC[C@H](C)c2ccccc2)cn2nc(C(O)CN3CC4(CCN(C5CCNC(=O)C5)CC4)NC3=O)nc12 (stereo partly drawn) [Compound 79] | **** (>1.5-2.5° C.=****) |
| COC(=O)c1cccc(N2CC3(CN(CCc4nc5c(C)cc(OC[C@H](C)c6ccccc6)cn5n4)C(=O)N3)C2)n1 [Compound 135] | ***** (>2.5° C.=*****) |
| Cc1cc(OCC2(c3ccccc3)CC2)cn2nc(C(O)CN3CC4(CCN(c5ccc(Cl)nc5)CC4)NC3=O)nc12 (stereo not drawn) [Compound 41] | **** (>1.5-2.5° C.=****) |
| COc1cccc(N2CCC3(CC2)CN(CC(O)c2nc4c(C)cc(OCC5(c6ccccc6)CC5)cn4n2)C(=O)N3)n1 (stereo not drawn) [Compound 140] | **** (>1.5-2.5° C.=****) |
| Cc1cc(OC[C@H](C)c2ccccc2)cn2nc(C(O)CN3CC4(CCN(C(=O)Cn5nnnc5C)CC4)NC3=O)nc12 (stereo partly drawn) [Compound 71] | **** (>1.5-2.5° C.=****) |
| Cc1cc(N2CC[C@@](C)(c3ccccc3)C2)cn2nc(CCN3CC4(CN(c5ccnc(O)c5)C4)NC3=O)nc12 [Compound 27] | ***** (>2.5° C.=*****) |
| Cc1cc(OC[C@H](C)c2ccccc2)cn2nc(C(O)CN3CC4(CCN(c5cccc(O)n5)CC4)NC3=O)nc12 (stereo partly drawn) [Compound 72] | **** (>1.5-2.5° C.=****) |
| Cc1cc(OC[C@H](C)c2ccccc2)cn2nc(CCN3CC4(CCN(S(=O)(=O)c5cccnc5)CC4)NC3=O)nc12 [Compound 125] | **** (>1.5-2.5° C.=****) |
| Cc1cc(OCC2(c3ccccc3)CC2)cn2nc(C(O)CN3CC4(CCN(c5cccnc5C(F)(F)F)CC4)NC3=O)nc12 (stereo not drawn) [Compound 35] | **** (>1.5-2.5° C.=****) |
| Cc1cc(OC[C@H](C)c2ccccc2)cn2nc(C(O)CN3CC4(CCN(c5ccnc(O)c5)C4)NC3=O)nc12 (stereo partly drawn) [Compound 73] | *** (>1-1.5° C.=***) |
| Cc1cc(OCC2(c3ccccc3)CC2)cn2nc(C(O)CN3CC4(CCN(c5cncnc5)CC4)NC3=O)nc12 (stereo not drawn) [Compound 49] | **** (>1.5-2.5° C.=****) |
| COc1ncccc1N1CCC2(CC1)CN(CCc1nc3c(C)cc(OC[C@H](C)c4ccccc4)cn3n1)C(=O)N2 [Compound 139] | *** (>1-1.5° C.=***) |
| COc1cc(N2CCC3(CC2)CN(CCc2nc4c(C)cc(OC[C@H](C)c5ccccc5)cn4n2)C(=O)N3)ccn1 [Compound 143] | **** (>1.5-2.5° C.=****) |
| Cc1cc(OC[C@H](C)c2ccccc2)cn2nc(CCN3CC4(CN(c5cccc(C(=O)O)n5)C4)NC3=O)nc12 [Compound 126] | *** (>1-1.5° C.=***) |

| SMILES | DSF temperature shift: [Tm]compound−[Tm]vehicle |
| --- | --- |
| Cc1cc(N2CCC(C)(c3ccccc3)C2)cn2nc(CCN3CC4(CCN(c5nccn6ccnc56)CC4)NC3=O)nc12 (stereo not drawn) [Compound 1, 8-(Imidazo[1,2-a]pyrazin-8-yl)-3-(2-(8-methyl-6-(3-methyl-3-phenylpyrrolidin-1-yl)-[1,2,4]triazolo[1,5-a]pyridin-2-yl)ethyl)-1,3,8-triazaspiro[4.5]decan-2-one] | ***** (>2.5° C.=*****) |
| Cc1cc(OC[C@H](C)c2ccccc2)cn2nc(CCN3CC4(CCN(c5nccnc5F)CC4)NC3=O)nc12 [Compound 117] | **** (>1.5-2.5° C.=****) |
| Cc1ncc(N2CCC3(CC2)CN(CCc2nc4c(C)cc(OC[C@H](C)c5ccccc5)cn4n2)C(=O)N3)s1 [Compound 107] | **** (>1.5-2.5° C.=****) |
| Cc1nnc(N2CCC3(CC2)CN(CCc2nc4c(C)cc(OC[C@H](C)c5ccccc5)cn4n2)C(=O)N3)s1 [Compound 122] | **** (>1.5-2.5° C.=****) |
| Cc1cc(OC[C@H](C)c2ccccc2)cn2nc(CCN3CC4(CCN(c5nc(F)cc(F)n5)CC4)NC3=O)nc12 [Compound 109] | **** (>1.5-2.5° C.=****) |
| Cc1cc(OCC2(c3ccccc3)CC2)cn2nc(C(O)CN3CC4(CCN(c5ccn(C)n5)CC4)NC3=O)nc12 (stereo not drawn) [Compound 61] | **** (>1.5-2.5° C.=****) |
| Cc1cc(OC[C@H](C)c2ccccc2)cn2nc(CCN3CC4(CN(c5ncc(F)cn5)C4)NC3=O)nc12 [Compound 127] | ***** (>2.5° C.=*****) |
| Cc1cc(OC[C@H](C)c2ccccc2)cn2nc(CCN3CC4(CCN(c5ccnc(S(C)(=O)=O)n5)CC4)NC3=O)nc12 [Compound 106] | ***** (>2.5° C.=*****) |
| Cc1cc(OC[C@H](C)c2ccccc2)cn2nc(C(O)CN3CC4(CCN(C(=O)c5ncn(C)n5)CC4)NC3=O)nc12 (stereo partly drawn) [Compound 69] | **** (>1.5-2.5° C.=****) |
| Cc1cc(OC[C@H](C)c2ccccc2)cn2nc(CCN3CC4(CCN(c5ccnc(O)c5)CC4)NC3=O)nc12 [Compound 105] | ***** (>2.5° C.=*****) |
| Cc1cnc(N2CCC3(CC2)CN(CCc2nc4c(C)cc(OC[C@H](C)c5ccccc5)cn4n2)C(=O)N3)s1 [Compound 129] | ***** (>2.5° C.=*****) |
| Cc1cc(OC[C@H](C)c2ccccc2)cn2nc(CCN3CC4(CCN(c5ncc(F)cn5)CC4)NC3=O)nc12 [Compound 113] | ***** (>2.5° C.=*****) |
| Cc1nc(N2CCC3(CC2)CN(CCc2nc4c(C)cc(OC[C@H](C)c5ccccc5)cn4n2)C(=O)N3)no1 [Compound 123] | **** (>1.5-2.5° C.=****) |
| Cc1cc(OC[C@H](C)c2ccccc2)cn2nc(CCN3CC4(CCN(c5ncccn5)CC4)NC3=O)nc12 [Compound 115] | **** (>1.5-2.5° C.=****) |
| Cc1cc(N2CCC(C)(c3ccccc3)C2)cn2nc(CCCN3C(=O)NC4(CCN(c5nccn6ccnc56)CC4)C3=O)nc12 (stereo not drawn) [Compound 17] | ***** (>2.5° C.=*****) |
| Cc1cc(OC[C@H](C)c2ccccc2)cn2nc(CCN3CC4(CCN(c5ccnc(F)n5)CC4)NC3=O)nc12 [Compound 111] | **** (>1.5-2.5° C.=****) |
| Cc1cc(N2CC[C@@](C)(c3ccccc3)C2)cn2nc(C(O)CN3CC4(CCN(c5nccn6ccnc56)CC4)NC3=O)nc12 (stereo partly drawn) [Compound 22] | ***** (>2.5° C.=*****) |
| Cc1cc(N2CC3(CN(CC(O)c4nc5c(C)cc(OC[C@H](C)c6ccccc6)cn5n4)C(=O)N3)C2)cc(O)n1 (stereo partly drawn) [Compound 16] | ***** (>2.5° C.=*****) |
| Cc1cc(N2CC[C@@](C)(c3ccccc3)C2)cn2nc(C(O)CN3CC4(CCN(c5ccnc(O)c5)CC4)NC3=O)nc12 (stereo partly drawn) [Compound 21] | ***** (>2.5° C.=*****) |
| Cc1cc(N2CC[C@@](C)(c3ccccc3)C2)cn2nc(C(O)CN3CC4(CN(c5cccc(C(=O)O)n5)C4)NC3=O)nc12 (stereo partly drawn) [Compound 25] | ***** (>2.5° C.=*****) |
| CC[C@]1(c2ccccc2)CCN(c2cc(C)c3nc(CCN4CC5(CCN(c6nccn7cncc67)CC5)NC4=O)nn3c2)C1 [Compound 6] | ***** (>2.5° C.=*****) |
| Cc1nonc1C(=O)N1CCC2(CC1)CN(CC(O)c1nc3c(C)cc(OCC4(c5ccccc5)CC4)cn3n1)C(=O)N2 (stereo not drawn) [Compound 31] | **** (>1.5-2.5° C.=****) |
| Cc1cc(OCC2(c3ccccc3)CC2)cn2nc(C(O)CN3CC4(CCN(C(=O)Cn5nnnc5C)CC4)NC3=O)nc12 (stereo not drawn) [Compound 34] | **** (>1.5-2.5° C.=****) |
| Cc1cc(OC[C@H](C)c2ccccc2)cn2nc(CCN3CC4(CCN(c5ncc(F)cn5)C4)NC3=O)nc12 (stereo partly drawn) [Compound 112] | **** (>1.5-2.5° C.=****) |
